Results taken from US6956033B2, “3,4-dihydroisoquinoline derivative compound and a pharmaceutical agent comprising it as active ingredient” (Ono Pharmaceutical Co., Ltd., priority 2000, dated 2005).

target: T1, Human CB2 receptors (Homo sapiens, UniProt P34972); assay: In vitro signaling assay: inhibition of forskolin-induced cAMP production in human CB2 receptor expressing CHO cells; format: cell-based; settings: inhibition of 10 μM forskolin-induced cAMP production, human CB2 receptors expressed CHO cells, cAMP EIA
T1 construct: expressed in transfected cells; host or cells: CHO cells
T1 sequence (P34972 whole entry): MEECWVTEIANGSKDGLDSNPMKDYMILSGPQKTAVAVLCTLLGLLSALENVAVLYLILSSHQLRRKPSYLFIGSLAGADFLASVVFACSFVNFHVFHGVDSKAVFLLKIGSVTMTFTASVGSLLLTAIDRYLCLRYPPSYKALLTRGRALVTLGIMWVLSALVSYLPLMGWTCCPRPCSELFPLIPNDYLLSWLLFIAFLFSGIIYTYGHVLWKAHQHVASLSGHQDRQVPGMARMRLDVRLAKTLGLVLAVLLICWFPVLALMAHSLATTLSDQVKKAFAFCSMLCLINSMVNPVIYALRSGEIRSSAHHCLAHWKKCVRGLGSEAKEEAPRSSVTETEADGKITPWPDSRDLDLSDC
Procedure: It was confirmed by the following experiment that the compound of formula (I) of the present invention has CB2 receptor agonist activity.
Method for the Experiment:
Human CB2 receptors expressed CHO cells were used for the assays. Cells were dispersed seeded in 96-well plates in a density of 5×10^4 cells/well, and were subjected to experiment the next day. After removing the culture media 1 mM isobutylmethylxanthine (IBMX) solution was added, and cells were incubated for 10 minutes at room temperature. Next, a mixture of 10 μM forskolin and the compound of the present invention was added. After additional incubation for 15 minutes at room temperature, the culture supernatant was discarded and 200 μl of lysis reagent (attached to a cAMP EIA) was added. The amounts of cAMP of the lysate were determined by a cAMP EIA kit (Amersham) under conditions of the forskolin-induced cAMP production. The compound of the present invention was dissolved in DMSO and the solution was diluted to adjust the final concentration of DMSO to 0.1%. IC50 values were calculated from the inhibitory ratio of the compound of the present invention toward the amount of the forskolin-induced cAMP production. By the same experiment using CHO cells, it was confirmed that this inhibitory effect toward cAMP production by the compound was mediated via the human CB2 receptors.

IC50 | SMILES
0.4 nM | CC1(C)Cc2ccccc2/C(=C/C(=O)C2CCCCCC2)N1 [1(11), (Z)-2-(3,3-dimethyl-3,4-dihydro-(2H)-isoquinolin-1-ylidene)-1-cycloheptylethan-1-one]
0.8 nM | O=C(/C=C1\NC2(CCOCC2)Cc2ccccc21)c1ccccc1 [1(33), (Z)-2-(spiro[3,4-dihydro-(2H)-isoquinolin-3,4′-3,4,5,6-tetrahydropyran]-1-ylidene)-1-phenylethan-1-one]
2.4 nM | CC1(C)Cc2ccccc2/C(=C/C(=O)C2CCCCC2)N1 [compound 1]
